Here are results for 10 compounds from patent US20250302832A1, “PYRAZINE DERIVATIVES AND USES THEREOF” (FOGHORN THERAPEUTICS INC., priority 2022, published 2025).

One test addresses T1, HiBit-BRM fusion protein (Homo sapiens, UniProt P51531).
T1 construct: expressed in transfected cells
As to the kind of experiment: HiBiT-BRM cell-based degradation assay (Nano-Glo HiBiT lytic detection, 24 h). As to conditions: HeLa cell line expressing HiBiT-BRM; for DC50: read-out: BRM HiBit Degradation IC50. The method in brief:
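Stable HeLa HiBiT-BRM cells treated 24 h with compounds (10-point 3-fold dilutions, 30 μM final top dose, duplicate). HiBiT levels read by Nano-Glo lytic luminescence; % degradation normalised to DMSO (high control) and 2 μM reference BRM/BRG1 degrader (low control).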

Test [1] concerns the target T2, HiBit-BRG1 fusion protein (Homo sapiens, UniProt P51532).
T2 construct: expressed in transfected cells
As to the kind of experiment: HiBiT-BRG1 cell-based degradation assay (Nano-Glo HiBiT lytic detection, 24 h). As to conditions: HeLa cell line expressing HiBit-BRG1 and LgBit; for Dmax: read-out: BRG1 HiBit Degradation Maximum (%); for DC50: read-out: BRMG1 HiBit Degradation IC50. The method in brief: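 HeLa cells stably expressing HiBiT-BRG1 and LgBiT, 5000 per well, compound-treated 24 h, equilibrated 15 min at room temperature, then lysed with LgBiT-containing Nano-Glo HiBiT lytic reagent and luminescence read. % degradation normalised between DMSO (high control) and 2 μM reference BRM/BRG1 degrader (low control).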
(In general: HiBiT is a short tag that completes a luciferase, so light tracks the accessible tagged protein.)

T2 sequence (P51532 whole entry, the tested form may be a part): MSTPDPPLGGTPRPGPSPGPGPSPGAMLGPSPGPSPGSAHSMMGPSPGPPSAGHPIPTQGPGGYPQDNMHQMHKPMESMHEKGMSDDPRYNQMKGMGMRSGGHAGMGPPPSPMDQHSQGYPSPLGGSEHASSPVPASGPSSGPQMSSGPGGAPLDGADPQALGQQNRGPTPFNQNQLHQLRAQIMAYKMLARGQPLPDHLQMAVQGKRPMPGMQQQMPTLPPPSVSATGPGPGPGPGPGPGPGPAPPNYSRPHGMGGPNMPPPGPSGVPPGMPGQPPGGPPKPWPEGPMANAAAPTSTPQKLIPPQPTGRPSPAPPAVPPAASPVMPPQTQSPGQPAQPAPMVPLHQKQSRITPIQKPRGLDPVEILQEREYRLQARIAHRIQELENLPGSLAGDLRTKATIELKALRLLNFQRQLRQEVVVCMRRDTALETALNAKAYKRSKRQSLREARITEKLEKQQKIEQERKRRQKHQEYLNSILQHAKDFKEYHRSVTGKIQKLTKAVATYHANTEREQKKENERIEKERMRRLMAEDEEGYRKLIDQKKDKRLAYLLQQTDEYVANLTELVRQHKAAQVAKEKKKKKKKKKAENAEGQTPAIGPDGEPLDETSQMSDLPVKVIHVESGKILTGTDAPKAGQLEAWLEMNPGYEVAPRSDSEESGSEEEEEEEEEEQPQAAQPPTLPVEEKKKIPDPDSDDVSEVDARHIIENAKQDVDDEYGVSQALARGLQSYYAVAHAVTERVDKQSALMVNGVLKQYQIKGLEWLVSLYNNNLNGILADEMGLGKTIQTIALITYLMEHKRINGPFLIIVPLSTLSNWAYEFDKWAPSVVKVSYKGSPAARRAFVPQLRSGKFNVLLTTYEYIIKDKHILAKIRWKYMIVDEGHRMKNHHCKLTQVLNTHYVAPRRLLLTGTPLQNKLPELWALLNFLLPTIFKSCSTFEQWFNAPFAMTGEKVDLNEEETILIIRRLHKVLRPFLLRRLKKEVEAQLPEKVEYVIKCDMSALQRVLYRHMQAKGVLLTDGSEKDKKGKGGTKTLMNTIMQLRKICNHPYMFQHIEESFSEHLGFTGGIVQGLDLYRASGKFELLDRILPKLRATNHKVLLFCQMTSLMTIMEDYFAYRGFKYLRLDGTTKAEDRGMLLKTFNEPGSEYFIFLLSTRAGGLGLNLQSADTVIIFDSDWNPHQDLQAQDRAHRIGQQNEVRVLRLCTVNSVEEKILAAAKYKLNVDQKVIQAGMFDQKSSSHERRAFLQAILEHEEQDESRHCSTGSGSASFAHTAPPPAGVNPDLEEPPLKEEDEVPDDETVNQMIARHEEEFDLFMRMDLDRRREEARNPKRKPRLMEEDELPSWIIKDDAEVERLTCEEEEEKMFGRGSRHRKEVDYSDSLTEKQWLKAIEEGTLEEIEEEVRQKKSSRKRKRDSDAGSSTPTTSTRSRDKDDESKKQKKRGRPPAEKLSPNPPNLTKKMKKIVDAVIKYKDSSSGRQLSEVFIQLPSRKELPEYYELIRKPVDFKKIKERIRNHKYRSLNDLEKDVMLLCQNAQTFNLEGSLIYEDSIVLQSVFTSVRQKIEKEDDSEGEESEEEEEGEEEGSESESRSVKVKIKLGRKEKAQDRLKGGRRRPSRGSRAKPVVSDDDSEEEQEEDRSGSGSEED
T1 sequence (P51531 whole entry, the tested form may be a part): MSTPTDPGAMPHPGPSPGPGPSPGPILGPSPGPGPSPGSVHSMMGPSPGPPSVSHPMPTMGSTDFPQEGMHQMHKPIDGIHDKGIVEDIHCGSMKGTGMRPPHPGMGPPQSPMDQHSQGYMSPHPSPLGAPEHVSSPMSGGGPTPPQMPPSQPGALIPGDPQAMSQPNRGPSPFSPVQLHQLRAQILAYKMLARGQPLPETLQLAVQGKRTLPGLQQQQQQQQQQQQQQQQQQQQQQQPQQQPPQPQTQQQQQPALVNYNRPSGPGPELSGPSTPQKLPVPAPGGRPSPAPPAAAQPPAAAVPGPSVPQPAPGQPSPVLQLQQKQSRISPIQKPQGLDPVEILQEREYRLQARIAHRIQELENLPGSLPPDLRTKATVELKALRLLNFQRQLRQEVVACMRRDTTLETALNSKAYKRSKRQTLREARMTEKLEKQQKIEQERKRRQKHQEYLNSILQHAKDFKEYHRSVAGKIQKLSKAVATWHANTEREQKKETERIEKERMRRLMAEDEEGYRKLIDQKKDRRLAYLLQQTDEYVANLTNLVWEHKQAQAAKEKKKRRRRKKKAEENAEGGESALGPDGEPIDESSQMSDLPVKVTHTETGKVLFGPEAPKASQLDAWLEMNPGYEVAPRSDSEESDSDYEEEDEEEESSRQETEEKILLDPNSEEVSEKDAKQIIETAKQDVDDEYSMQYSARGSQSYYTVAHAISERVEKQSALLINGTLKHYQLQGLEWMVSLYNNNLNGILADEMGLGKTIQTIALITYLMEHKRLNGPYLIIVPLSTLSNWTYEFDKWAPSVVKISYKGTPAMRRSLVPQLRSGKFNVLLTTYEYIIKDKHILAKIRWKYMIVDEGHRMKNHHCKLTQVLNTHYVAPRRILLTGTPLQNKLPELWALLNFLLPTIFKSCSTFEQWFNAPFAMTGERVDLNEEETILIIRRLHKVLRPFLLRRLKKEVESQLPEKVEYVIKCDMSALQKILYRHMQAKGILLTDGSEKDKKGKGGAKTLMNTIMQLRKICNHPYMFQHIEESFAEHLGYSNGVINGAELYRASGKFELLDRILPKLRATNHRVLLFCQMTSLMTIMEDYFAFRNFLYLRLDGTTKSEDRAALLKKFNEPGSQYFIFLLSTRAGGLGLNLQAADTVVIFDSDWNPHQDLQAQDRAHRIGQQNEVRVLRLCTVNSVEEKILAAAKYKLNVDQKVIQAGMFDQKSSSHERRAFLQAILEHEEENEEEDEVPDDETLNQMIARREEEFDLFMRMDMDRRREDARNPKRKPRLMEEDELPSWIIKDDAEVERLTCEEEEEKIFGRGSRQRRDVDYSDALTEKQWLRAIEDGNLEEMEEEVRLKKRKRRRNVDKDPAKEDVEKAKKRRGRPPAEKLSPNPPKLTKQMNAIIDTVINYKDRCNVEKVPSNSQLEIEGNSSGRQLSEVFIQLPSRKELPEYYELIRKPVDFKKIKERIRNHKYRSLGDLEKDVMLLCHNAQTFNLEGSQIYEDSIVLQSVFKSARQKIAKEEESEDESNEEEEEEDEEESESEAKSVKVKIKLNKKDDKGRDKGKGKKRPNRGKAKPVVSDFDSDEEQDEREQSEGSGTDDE

Consider `Cc1ncsc1-c1ccc([C@H](C)NC(=O)[C@@H]2C[C@@H](O)CN2C(=O)[C@H](c2cc(-c3cnc(N4CC[C@H](c5cc6nnc(-c7ccccc7O)cc6n5C5CC5)C4)nc3)no2)C(C)C)cc1` [Compound 35, (2S,4R)-1-((S)-2-(3-(2-((S)-3-(5-cyclopropyl-3-(2-hydroxyphenyl)-5H-pyrrolo[3,2-c]pyridazin-6-yl)pyrrolidin-1-yl)pyrimidin-5-yl)isoxazol-5-yl)-3-methylbutanoyl)-4-hydroxy-N—((S)-1-(4-(4-methylthiazol-5-yl)phenyl)ethyl)pyrrolidine-2-carboxamide], for which, on HiBit-BRM fusion protein, the “BRM HiBit Degradation Maximum (%)” value was “A (“A” indicates maximum degradation ≥75%)” and the DC50 is greater than 100 nM. In test [1], the Dmax is less than 50%.

`Cc1ncsc1-c1ccc([C@H](C)NC(=O)[C@@H]2C[C@@H](O)CN2C(=O)[C@@H](c2cc(N3CC4(CC(c5cc6nnc(-c7ccccc7O)cc6n5C5CCC5)C4)C3)no2)C(C)C)cc1` [Compound 105, (2S,4R)-1-[(2R)-2-(3-{6-[5-cyclobutyl-3-(2-hydroxyphenyl)pyrrolo[3,2-c]pyridazin-6-yl]-2-azaspiro[3.3]heptan-2-yl}-1,2-oxazol-5-yl)-3-methylbutanoyl]-4-hydroxy-N-[(1S)-1-[4-(4-methyl-1,3-thiazol-5-yl)phenyl]ethyl]pyrrolidine-2-carb oxamide]: on HiBit-BRM fusion protein, the “BRM HiBit Degradation Maximum (%)” value is “A (“A” indicates maximum degradation ≥75%)” and the DC50 is less than 10 nM. In addition, the Dmax in test [1] was less than 50%.

Regarding `Cc1ncsc1-c1ccc([C@H](C)NC(=O)[C@@H]2C[C@@H](O)CN2C(=O)[C@@H](c2cc(N3C[C@@H]4C(c5cc6nnc(-c7ccccc7O)cc6n5C5CC5)[C@H]4C3)no2)C(C)C)cc1` (stereo partly drawn) [Compound 101, (2S,4R)-1-((R)-2-(3-((1S,5S)-6-(5-cyclopropyl-3-(2-hydroxyphenyl)-5H-pyrrolo[3,2-c]pyridazin-6-yl)-3-azabicyclo[3.1.0]hexan-3-yl)isoxazol-5-yl)-3-methylbutanoyl)-4-hydroxy-N-((S)-1-(4-(4-methylthiazol-5-yl)phenyl)ethyl)pyrrolidine-2-carboxamide], on HiBit-BRM fusion protein, the “BRM HiBit Degradation Maximum (%)” value is “A (“A” indicates maximum degradation ≥75%)” and the DC50 was less than 10 nM. Moreover, in test [1], the Dmax is greater than 50% and the DC50 was greater than 10 nM.

Turning to `Cc1ncsc1-c1ccc([C@H](C)NC(=O)[C@@H]2C[C@@H](O)CN2C(=O)[C@@H](c2cc(N3CCC4(CC3)CC(c3cc5nnc(-c6ccccc6O)cc5n3C)C4)no2)C(C)C)cc1` [Compound 113, (2S,4R)-4-hydroxy-1-((R)-2-(3-(2-(3-(2-hydroxyphenyl)-5-methyl-5H-pyrrolo[3,2-c]pyridazin-6-yl)-7-azaspiro[3.5]nonan-7-yl)isoxazol-5-yl)-3-methylbutanoyl)-N-((S)-1-(4-(4-methylthiazol-5-yl)phenyl)ethyl)pyrrolidine-2-carboxamide], at HiBit-BRM fusion protein, the “BRM HiBit Degradation Maximum (%)” value is “A (“A” indicates maximum degradation ≥75%)” and the DC50 was less than 10 nM. Moreover, in test [1], the Dmax was greater than 50% and the DC50 is greater than 10 nM.

For the compound `CNC(=O)[C@@H]1C[C@@H](O)CN1C(=O)[C@@H](c1cc(N2CC3(CC(c4cc5nnc(-c6ccccc6O)cc5n4C4CCC4)C3)C2)no1)C(C)C` [Compound 61, (2S,4R)-1-((R)-2-(3-(6-(5-cyclobutyl-3-(2-hydroxyphenyl)-5H-pyrrolo[3,2-c]pyridazin-6-yl)-2-azaspiro[3.3]heptan-2-yl)isoxazol-5-yl)-3-methylbutanoyl)-4-hydroxy-N-methylpyrrolidine-2-carboxamide], at HiBit-BRM fusion protein, the “BRM HiBit Degradation Maximum (%)” value is recorded as “A (“A” indicates maximum degradation ≥75%)” and the DC50 is greater than 10 nM. Further, the Dmax in test [1] was less than 50%.

Take `CC(C)NC(=O)[C@@H]1C[C@@H](O)CN1C(=O)C(c1cc(N2CC3(CC(c4cc5nnc(-c6ccccc6O)cc5n4C4CCC4)C3)C2)no1)C(C)C` (stereo partly drawn) [Compound 54, (2S,4R)-1-(2-(3-(6-(5-cyclobutyl-3-(2-hydroxyphenyl)-5H-pyrrolo[3,2-c]pyridazin-6-yl)-2-azaspiro[3.3]heptan-2-yl)isoxazol-5-yl)-3-methylbutanoyl)-4-hydroxy-N-isopropylpyrrolidine-2-carboxamide]: at HiBit-BRM fusion protein, the “BRM HiBit Degradation Maximum (%)” value is given as “A (“A” indicates maximum degradation ≥75%)” and the DC50 was greater than 10 nM. Further, the Dmax in test [1] is less than 50%.

Consider `Cc1ncsc1-c1ccc([C@H](C)NC(=O)[C@@H]2C[C@@H](O)CN2C(=O)[C@@H](c2cc(OCCN3C[C@@H]4[C@H](C3)[C@H]4n3c(C)cc4nnc(-c5ccccc5O)cc43)no2)C(C)C)cc1` [Compound 33, (2S,4R)-4-hydroxy-1-[(2R)-2-(3-{2-[(1R,5S,6S)-6-[3-(2-hydroxyphenyl)-6-methylpyrrolo[3,2-c]pyridazin-5-yl]-3-azabicyclo[3.1.0]hexan-3-yl]ethoxy}-1,2-oxazol-5-yl)-3-methylbutanoyl]-N-[(1S)-1-[4-(4-methyl-1,3-thiazol-5-yl)phenyl]ethyl]pyrrolidine-2-carboxamide], for which, at HiBit-BRM fusion protein, the “BRM HiBit Degradation Maximum (%)” value is recorded as “C (“C” indicates maximum degradation <50%)”. The Dmax in test [1] is less than 50%.

With `Cc1ncsc1-c1ccc([C@H](C)NC(=O)[C@@H]2C[C@@H](O)CN2C(=O)[C@@H](c2cc(-c3cnc(N4CC[C@H](c5cc6nnc(-c7ccccc7O)cc6n5C5CCC5)C4)nc3)no2)C(C)C)cc1` [Compound 112, (2S,4R)-1-((R)-2-(3-(2-((S)-3-(5-cyclobutyl-3-(2-hydroxyphenyl)-5H-pyrrolo[3,2-c]pyridazin-6-yl)pyrrolidin-1-yl)pyrimidin-5-yl)isoxazol-5-yl)-3-methylbutanoyl)-4-hydroxy-N-((S)-1-(4-(4-methylthiazol-5-yl)phenyl)ethyl)pyrrolidine-2-carboxamide], at HiBit-BRM fusion protein, the “BRM HiBit Degradation Maximum (%)” value is “A (“A” indicates maximum degradation ≥75%)” and the DC50 is greater than 10 nM. Further, in test [1], the Dmax is greater than 50% and the DC50 was greater than 10 nM.

For `Cc1ncsc1-c1ccc([C@H](C)NC(=O)[C@@H]2C[C@@H](O)CN2C(=O)[C@@H](c2cc(-c3cnc(N4CCC(c5cc6nnc(-c7ccccc7O)cc6n5C5CCC5)CC4)nc3)no2)C(C)C)cc1` [Compound 47], at HiBit-BRM fusion protein, the “BRM HiBit Degradation Maximum (%)” value is “A (“A” indicates maximum degradation ≥75%)” and the DC50 is less than 10 nM. The “BRG1 HiBit Degradation Maximum (%)” value in test [1] is reported as “C (“C” indicates maximum degradation <50%)”.

As for `Cc1ncsc1-c1ccc([C@H](C)NC(=O)[C@@H]2C[C@@H](O)CN2C(=O)[C@@H](c2cc(-c3cnc(N4CC[C@@H](c5cc6nnc(-c7cc(F)cc(Cl)c7O)cc6n5C5CC5)C4)nc3)no2)C(C)C)cc1` [Compound 70, (2S,4R)-1-((R)-2-(3-(2-((R)-3-(3-(3-chloro-5-fluoro-2-hydroxyphenyl)-5-cyclopropyl-5H-pyrrolo[3,2-c]pyridazin-6-yl)pyrrolidin-1-yl)pyrimidin-5-yl)isoxazol-5-yl)-3-methylbutanoyl)-4-hydroxy-N-((S)-1-(4-(4-methylthiazol-5-yl)phenyl)ethyl)pyrrolidine-2-carboxamide], on HiBit-BRM fusion protein, the “BRM HiBit Degradation Maximum (%)” value was “A (“A” indicates maximum degradation ≥75%)” and the DC50 was less than 10 nM. Besides, in test [1], the Dmax was less than 50%.
